Paper PMC12419160 (The Journal of Cell Biology, 2025)

Target: T1, PILS-Nir1 (6xHis-tagged LNS2 domain of Nir1) (Homo sapiens, UniProt Q9BZ71)
T1 construct: gene PITPNM3; LNS2 (PILS) domain, residues 609-912 in Methods but 604-912 in Results; TEV-cleavable N-terminal 6xHis tag (pTHT), codon-optimised, expressed in E. coli BL21(DE3) RIPL
T1 sequence (Q9BZ71 609-912): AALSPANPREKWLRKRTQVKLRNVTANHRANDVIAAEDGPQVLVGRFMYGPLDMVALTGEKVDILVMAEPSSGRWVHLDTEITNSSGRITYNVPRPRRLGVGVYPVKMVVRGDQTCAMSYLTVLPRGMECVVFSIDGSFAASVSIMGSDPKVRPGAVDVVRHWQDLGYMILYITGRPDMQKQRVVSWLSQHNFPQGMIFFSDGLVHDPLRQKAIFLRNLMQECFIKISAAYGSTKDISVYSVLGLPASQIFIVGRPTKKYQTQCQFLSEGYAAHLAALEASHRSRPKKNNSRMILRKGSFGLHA
Assay: liposome cosedimentation, SDS-PAGE densitometry
Assay type: binding
Details: 20 mol% PA / 80 mol% PC liposomes, 20 mM Tris pH 7.5, 150 mM NaCl; one-site fit with background; 95% C.I. 110.1–789.9 µM

Question: With phosphatidic acid [PA] as the substance, how does the Kd read?
Answer: The Kd was 422 µM.
